Experimental findings from paper PMC3203990 (The FEBS journal, 2011) are described below.

Molecules are shown by their SMILES.

The target in the assay is FtCCAP (Francisella tularensis class C acid phosphatase) (Francisella tularensis, UniProt Q5NH51). Nature of the assay: biochemical.
FtCCAP (Francisella tularensis class C acid phosphatase), sequence (Q5NH51 22-247 limits assumed): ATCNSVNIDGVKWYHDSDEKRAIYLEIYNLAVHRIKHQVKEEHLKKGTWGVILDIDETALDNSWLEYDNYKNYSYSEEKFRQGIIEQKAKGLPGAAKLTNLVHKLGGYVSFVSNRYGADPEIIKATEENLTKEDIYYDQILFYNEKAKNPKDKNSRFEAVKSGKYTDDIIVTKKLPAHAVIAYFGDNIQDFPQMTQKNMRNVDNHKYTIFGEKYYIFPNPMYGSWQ

Compound `Nc1ncnc2c1ncn2[C@@H]1O[C@H](COP(O)(O)=S)[C@@H](O)[C@H]1O` [AMPS] gave a Ki of 0.3 ± 0.03 µM.

One may read the Ki as a dissociation constant, usually derived from enzyme kinetics or from competition with a known ligand. Low values mean tighter binding, high ones weaker binding.
